Laboratory results taken from paper PMC7114187 (Antiviral Research, 2008).
pEC50, pIC50: −log10 of the molar value. Counter-ions that a name gives are not always drawn. Like-named read-outs stand apart in the source and are kept apart here.

Tests used:
[1] = test system: influenza neuraminidase (NA), inactivated viral suspensions of influenza A/Udorn/72 (H3N2); type: biochemical
[2] = test system: influenza viruses; assay: microbe, parasite or virus in culture; type: cell-based, influenza virus; details: for inhibition at 10 µM: read-out: inhibition of CPE at 10 μM
[3] = test system: MDCK cells
[4] = target: NA in inactivated viral suspension of influenza A/Udorn/72 (H3N2) (Influenza A virus (H3N2), UniProt P0DOF6); type: biochemical; details: read-out: IC50 NA inhibition
[5] = test system: influenza A/WSN/33 (H1N1); assay: microbe, parasite or virus in culture; type: cell-based; details: read-out: EC50 viral plaque formation
[6] = test system: influenza A/Udorn/72 (H3N2); assay: microbe, parasite or virus in culture; type: cell-based; details: read-out: EC50 viral plaque formation
[7] = test system: NIBRG-14 (H5N1); assay: microbe, parasite or virus in culture; type: cell-based, influenza NIBRG-14 (H5N1); details: read-out: EC50 viral plaque formation
[8] = test system: influenza A/WSN/33 (H1N1); type: cell-based
[9] = target: influenza A/WSN/33 (H1N1) polymerase complex (PA, PB1, PB2, NP) (Influenza A virus, UniProt P03427+P03430+P15659); type: cell-based
[10] = test system: SARS-CoV; details: cited from earlier work
[11] = in vitro; details: dog
[12] = read-out: CPE inhibition IC50 (<10 μM), symbol
[13] = unidentified influenza virus, MDCK, 72 h, read-out: CPE inhibition IC50 (<10 μM)
[14] = unidentified influenza virus, MDCK

In the case of O=C(O[C@@H]1Cc2c(O)cc(O)cc2O[C@@H]1c1cc(O)c(O)c(O)c1-c1c([C@H]2Oc3cc(O)cc(O)c3C[C@H]2OC(=O)c2cc(O)c(O)c(O)c2)cc(O)c(O)c1O)c1cc(O)c(O)c(O)c1 [2′2′-Bisepigallocatechin digallate], the “NA activity inhibition at 50 μM (%)” value [1] was 60.6%, the pIC50 [2, 12] was less than 5.00 and the CC50 [3] was greater than 50 µM.

For O=C(O)C1=CC(=C(c2ccc(O)c(C(=O)O)c2)c2ccc(O)c(C(=O)O)c2)C=CC1=O [ATA, aurintricarboxylic acid], the “NA activity inhibition at 50 μM (%)” value [1] was 100.0%, the pIC50 [2, 13] was 5.03 and the inhibition at 10 µM [2, 14] was greater than 50%. It also gave a pIC50 [4] of 4.86, a pEC50 ([5]; Influenza A virus, H1N1|WSN, MDCK) of 5.39 and a pEC50 ([6]; Influenza A virus, H3N2, MDCK) of 5.20. For the same compound, the pEC50 ([7]; Influenza A virus, H5N1, MDCK) was 5.27, the “reduction of the viral yield” value [8] was greater than 1000 fold and the “reduction of the yield of influenza progeny virus” value [8] was “only marginal activity”. For the same compound, the “inhibition of RdRp-derived expression of CAT” value [9] was “did not inhibit”, the “EC50 for SARS-CoV” value [10] was 200 µg/mL and the CC50 [11] was 95.5 µM.

For CCCc1ncc(C[n+]2ccccc2C)c(N)n1 [Amprolium], the “NA activity inhibition at 50 μM (%)” value [1] was 95.0%.

With CC1(C)OCC(C2OC(=O)C(O)=C2O)O1 (stereo not drawn) [Ascorbic acid acetonide] the “NA activity inhibition at 50 μM (%)” value [1] was 83.5% and the pIC50 [2, 12] was less than 5.00.

In the case of S=C=NCc1ccccc1 [Benzyl isothiocyanate], the “NA activity inhibition at 50 μM (%)” value [1] was 75.5%.

In the case of CCc1ccc2c(O)c3c(cc2c1C(=O)OC)C(=O)c1c(O)ccc(O)c1C3=O [Bisanhydrorutilantinone], the “NA activity inhibition at 50 μM (%)” value [1] was 71.9%.

With Cc1cc(=O)c2c(o1)-c1c(cc(O)c(O)c1C(=O)O)OC2 [Citromycetin] the “NA activity inhibition at 50 μM (%)” value [1] was 46.8% and the pIC50 [2, 12] was less than 5.00.

With CC(=O)[C@@]1(O)CC[C@H]2[C@@H]3C=C(Cl)C4=CC(=O)[C@@H]5C[C@@H]5[C@]4(C)[C@H]3CC[C@@]21C [Cyproterone] the “NA activity inhibition at 50 μM (%)” value [1] was 55.7% and the pIC50 [2, 12] was less than 5.00.

In the case of COc1ccc(-c2cc(=O)c3c(O)cc(O)cc3o2)cc1O [Diosmetin], the “NA activity inhibition at 50 μM (%)” value [1] was 59.0%.

In the case of CCOC(=O)C1=C(O)C(=O)N(Cc2ccccc2)C1 [Ethyl1-benzyl-3-hydroxy-2-oxo(5H)pyrrole-4-carboxylate], the “NA activity inhibition at 50 μM (%)” value [1] was 71.9%.

For CCC(CC)O[C@@H]1C=C(C(=O)O)C[C@H](N)[C@H]1NC(C)=O [GS4071, Oseltamivir carboxylate], the “NA activity inhibition at 50 μM (%)” value [1] was 100.0%, the pIC50 ([2]; read-out: CPE inhibition IC50 (<10 μM)) was 7.00 and the pEC50 [5] was roughly 7.40. For the same compound, the pEC50 [6] was roughly 7.40, the pEC50 [7] was […] and the “reduction in the yield of progeny virus” value [8] was “no reduction”. The “reduction of the viral yield” value [8] was “effective to reduce the viral yield” and the CC50 [11] was greater than 25 µM.

In the case of O=C(/C=C/c1ccc(O)cc1)c1ccc(O)cc1O [Isoliquiritigenin], the “NA activity inhibition at 50 μM (%)” value [1] was 62.6%.

For CC(=O)N1CCN(c2ccc(OCC3COC(Cn4ccnc4)(c4ccc(Cl)cc4Cl)O3)cc2)CC1 (stereo not drawn) [Ketoconazole], the “NA activity inhibition at 50 μM (%)” value [1] was 72.2%.

In the case of COC(=O)C(N)CS (stereo not drawn) [Mecysteine hydrochloride], the “NA activity inhibition at 50 μM (%)” value [1] was 51.3%.

With Cc1cnc(NC(=O)C2=C(O)c3ccccc3S(=O)(=O)N2C)s1 [Meloxicam] the “NA activity inhibition at 50 μM (%)” value [1] was 62.1%.

In the case of O=c1c(O)c(-c2cc(O)c(O)c(O)c2)oc2cc(O)cc(O)c12 [Myricetin], the “NA activity inhibition at 50 μM (%)” value [1] was 61.6%.

For CO[C@H]1C[C@H](O[C@H]2CC[C@]3(C)[C@H]4CC[C@]5(C)[C@@H](C6=CC(=O)OC6)CC[C@]5(O)[C@@H]4CC[C@]3(O)C2)O[C@H](C)[C@H]1O [Periplocymarin], the “NA activity inhibition at 50 μM (%)” value [1] was 75.2%, the pIC50 [2, 13] was 6.52 and the inhibition at 10 µM [2, 14] was greater than 50%. The CC50 [11] was less than 50 µM.

With C1CNCCN1 [Piperazine] the “NA activity inhibition at 50 μM (%)” value [1] was 100.0%.

For O=C(O)c1cc(O)c2c(c1)[C@H]([C@H]1c3cc(C(=O)O)cc(O)c3C(=O)c3c(O[C@@H]4O[C@H](CO)[C@@H](O)[C@H](O)[C@H]4O)cccc31)c1cccc(O[C@@H]3O[C@H](CO)[C@@H](O)[C@H](O)[C@H]3O)c1C2=O [Sennoside A], the “NA activity inhibition at 50 μM (%)” value [1] was 61.9%.

For N#Cc1c(Cl)c(Cl)c(Cl)c(C#N)c1Cl [Tetrachloroisophthalonitrile], the “NA activity inhibition at 50 μM (%)” value [1] was 76.9% and the pIC50 [2, 12] was less than 5.00.

In the case of O=C(O[C@@H]1Cc2c(O)cc(O)cc2O[C@@H]1c1cc(O)c(=O)c2c(O)c(O)cc([C@H]3Oc4cc(O)cc(O)c4C[C@H]3OC(=O)c3cc(O)c(O)c(O)c3)c2c1)c1cc(O)c(O)c(O)c1 [Theaflavin digallate], the “NA activity inhibition at 50 μM (%)” value [1] was 61.5%.
